In patent US20250332173A1, “COMPOUNDS AND METHODS FOR MODULATING NUCLEIC ACID SPLICING” (REMIX THERAPEUTICS INC., priority 2021, published 2025):
Where two headings read alike, the source gives them in different places.

How the values were obtained:
Format in all cases: cell-based, human
HTT mRNA = test: RT-qPCR splicing assay, HTT canonical junction (CJ) and alternative junction (AJ) mRNA; details: Homo sapiens; for AC50: increase in HTT alternative junction (AJ) mRNA, read-out: HTT AJ AC50
Protocol: (§1) The expression of a target mRNA was measured by detecting the formation of an exon-exon junction in the canonical transcript (CJ). A compound mediated exon-inclusion event was detected by observing an increase in formation of a new junction with an alternative exon (AJ). Real-time qPCR assays were used to detect these splicing switches and interrogate the potency of various compounds towards different target genes. A high-throughput real time quantitative PCR (RT-qPCR) assay was developed to measure these two isoforms of the mRNA (CJ and AJ) for exemplary genes, such as HTT, SMN2, and MYB, together with a control housekeeping gene, GAPDH or GUSB or PPIA, used for normalization. Briefly, the A673 or K562 cell line was treated with various compounds described herein (e.g., compounds of Formula (I)). After treatment, the levels of the HTT, MYB, or SMN2 mRNA targets were determined from each sample of cell lysate by cDNA synthesis followed by qPCR.
(§2) • Cells-to-CT 1-step kit: ThermoFisher A25602, Cells-to-CT lysis reagent: ThermoFisher 4391851C, TaqMan™ Fast Virus 1-Step Master Mix: ThermoFisher 4444436 • GAPDH: VIC-PL, ThermoFisher 4326317E (Assay: Hs99999905_m1)—used for K562/suspension cell lines • GUSB: VIC-PL, ThermoFisher 4326320E (Assay: Hs99999908_m1)—used for K562/suspension cell lines • PPIA: VIC-PL, ThermoFisher 4326316E (Assay: Hs99999904_m1)—used for A673/adherent cell lines
(§3) The A673 cell line was cultured in DMEM with 10% FBS. Cells were diluted with full growth media and plated in a 96-well plate (15,000 cells in 100 ul media per well). The plate was incubated at 37° C. with 5% CO2 for 24 hours to allow cells to adhere. An 11-point 3-fold serial dilution of the compounds was made in DMSO then diluted in media in an intermediate plate. Compounds were transferred from the intermediate plate to the cell plate with the top dose at a final concentration of 10 uM in the well. Final DMSO concentration was kept at or below 0.25%. The cell plate was returned to the incubator at 37° C. with 5% CO2 for an additional 24 hours.
(§4) The K562 cell line was cultured in IMDM with 10% FBS. For K562, cells were diluted with full growth media and plated in either a 96-well plate (50,000 cells in 50 uL media per well) or a 384-well plate (8,000-40,000 cells in 45 uL media per well). An 11-point 3-fold serial dilution of the compounds were made in DMSO then diluted in media in an intermediate plate. Compound was transferred from the intermediate plate to the cell plate with the top dose at a final concentration of 10 uM in the well. Final DMSO concentration was kept at or below 0.25%. Final volume was 100 uL for 96-well plate and 50 uL for 384-well plate. The cell plate was then placed in an incubator at 37° C. with 5% CO2 for 24 hours.
(§5) The cells were then gently washed with 50 uL-100 uL cold PBS before proceeding to addition of lysis buffer. 30 uL-50 uL of room temperature lysis buffer with DNAse I (and optionally RNAsin) was added to each well. Cells were shaken/mixed thoroughly at room temperature for 5-10 minutes for lysis to take place and then 3 uL-5 uL of room temperature stop solution was added and wells were shaken/mixed again. After 2-5 minutes, the cell lysate plate was transferred to ice for RT-qPCR reaction setup. The lysates could also be frozen at −80° C. for later use.
(§6) In some cases, a direct lysis buffer was used. An appropriate volume of 3× lysis buffer (10 mM Tris, 150 mM NaCl, 1.5%-2.5% Igepal and 0.1-1 U/uL RNAsin, pH 7.4) was directly added to either K562 or A673 cells in media and mixed by pipetting 3 times. The plates were then incubated at room temperature with shaking/rocking for 20-50 minutes to allow for lysis to take place. After this time, the cell lysate plate was transferred to ice to set up for the RT-qPCR reactions. The lysates could also be frozen at −80° C. for later use.

MYB mRNA = test: RT-qPCR splicing assay, MYB canonical junction (CJ) and alternative junction (AJ) mRNA; details: Homo sapiens; for AC50: increase in MYB alternative junction (AJ) mRNA, read-out: MYB AJ AC50
Protocol: as §1, §2, §3, §4, §5, §6

SMN2 mRNA = test: RT-qPCR splicing assay, SMN2 canonical junction (CJ) mRNA; details: Homo sapiens; Table 5 panel; canonical junction qPCR; compound concentration having 50% response in CJ decrease; read-out: SMN2 IC50 (decrease in CJ mRNA levels)
Protocol: as §1, §3, §4, §5, §6
(§7) To set up 10 uL RT-qPCR reactions, cell lysates were transferred to 384-well qPCR plates containing the master mix according to the table below. The plates were sealed, gently vortexed, and spun down before the run. The volumes were adjusted accordingly in some instances where the reaction was carried in 20 uL. The table below summarizes the components of the RT-qPCR reactions:
(§8) The RT-qPCR reaction was performed using a QuantStudio (ThermoFisher) under the following fast cycling conditions.

Target C = test: RT-qPCR splicing assay panel, Target C canonical junction (CJ) mRNA; details: Homo sapiens; Table 5 panel; canonical junction qPCR; compound concentration having 50% response in CJ decrease; read-out: Target C IC50 (decrease in CJ mRNA levels)
Protocol: as §1, §3, §4, §5, §6, §7, §8

[1] = decrease in HTT canonical junction (CJ) mRNA, RT-qPCR, read-out: HTT CJ IC50
[2] = Table 5 panel, canonical junction qPCR, compound concentration having 50% response in CJ decrease, read-out: HTT IC50 (decrease in CJ mRNA levels)
[3] = Table 5 panel, canonical junction qPCR, compound concentration having 50% response in CJ decrease, read-out: MYB IC50 (decrease in CJ mRNA levels)
[4] = decrease in MYB canonical junction (CJ) mRNA, RT-qPCR, read-out: MYB CJ IC50

IC50 (HTT mRNA; [1]) [µM]	IC50 (HTT mRNA; [2]) [µM]	IC50 (MYB mRNA; [3]) [µM]	IC50 (MYB mRNA; [4]) [µM]	IC50 (SMN2 mRNA) [µM]	IC50 (Target C) [µM]	SMILES	AC50 (HTT mRNA; RT-qPCR) [µM]	AC50 (MYB mRNA; RT-qPCR) [µM]
> 10	> 10	> 10	> 10	1 to 10	1 to 10	CN1CCN(c2ccc3nc(-c4ccc5nn(C)cc5c4)[nH]c(=O)c3c2)CC1 [Compound 108]	> 10	> 10
1 to 10	1 to 10	1 to 10	1 to 10	0.1 to 1	1 to 10	Cc1cn2cc(-c3nc4ccc(N5CCN(C)CC5)cc4c(=O)[nH]3)cc(F)c2n1 [Compound 111]	1 to 10	1 to 10
> 10	> 10	1 to 10	0.1 to 1	< 0.1	> 10	Cc1cn2cc(-c3nc4ccc(N5CCNCC5)cc4c(=O)[nH]3)cc(F)c2n1 [Compound 115]	> 10	1 to 10
1 to 10	1 to 10	1 to 10	1 to 10	1 to 10	1 to 10	Cc1cc(-c2ccc3nc(N4CCNCC4)[nH]c(=O)c3c2)cc2cn(C)nc12 [Compound 166]	1 to 10	1 to 10
> 10	> 10	> 10	> 10	> 10	> 10	Cc1cc(-c2ccc3nc(NC4CCN(C)CC4)[nH]c(=O)c3c2)cc2cn(C)nc12 [Compound 167]	> 10	> 10
0.1 to 1	0.1 to 1	0.1 to 1	0.1 to 1	0.1 to 1	0.1 to 1	Cc1cn2nc(-c3ccc4nc(N5CCNC6(CC6)C5)[nH]c(=O)c4c3)cc(C)c2n1 [Compound 190]	0.1 to 1	0.1 to 1
> 10	> 10	> 10	> 10	> 10	> 10	Cc1cn2cc(-c3ccc4nc(N5CCNC6(CC6)C5)[nH]c(=O)c4c3)cc(F)c2n1 [Compound 191]	> 10	> 10
> 10	> 10	> 10	> 10	> 10	> 10	Cc1cn2nc(-c3ccc4nc(NC5CCNCC5)[nH]c(=O)c4c3)cc(C)c2n1 [Compound 192]	> 10	> 10
> 10	> 10	> 10	> 10	> 10	> 10	Cc1cn2cc(-c3ccc4nc(NC5CCNCC5)[nH]c(=O)c4c3)cc(F)c2n1 [Compound 238]	> 10	> 10
0.1 to 1	0.1 to 1	0.1 to 1	0.1 to 1	< 0.1	0.1 to 1	Cc1cn2cc(-c3ccc4c(=O)n(C5CCNC(C)C5)cnc4c3)cc(F)c2n1 (stereo not drawn) [Compound 323]	0.1 to 1	0.1 to 1
1 to 10	1 to 10	1 to 10	1 to 10	1 to 10	1 to 10	Cc1cn2nc(-c3ccc4c(c3)CCN(C3CCNC(C)C3)C4=O)cc(C)c2n1 (stereo not drawn) [Compound 327]	1 to 10	1 to 10
> 10	> 10	> 10	> 10	0.1 to 1	> 10	Cc1cn2cc(-c3cc(F)c4c(=O)n(C5CCNC6(CC6)C5)ccc4c3)cc(F)c2n1 (stereo not drawn) [Compound 471, 2-{4-azaspiro[2.5]octan-7-yl}-8-fluoro-6-{8-fluoro-2-methylimidazo[1,2-a]pyridin-6-yl}isoquinolin-1-one]	> 10	> 10
0.1 to 1	0.1 to 1	0.1 to 1	0.1 to 1	< 0.1	0.1 to 1	CNCCn1ncc2cc(-c3cc(C)c4nc(C)cn4n3)ccc2c1=O [Compound 472]	0.1 to 1	0.1 to 1
< 0.1	< 0.1	< 0.1	< 0.1	< 0.1	0.1 to 1	Cc1cn2cc(-c3cc(F)c4c(=O)n([C@H]5CC[C@H](N(C)C)CC5)ccc4c3)cc(F)c2n1 [Compound 654]	< 0.1	< 0.1
1 to 10	0.1 to 1	< 0.1	0.1 to 1	< 0.1	1 to 10	Cc1cn2nc(-c3cc(F)c4c(=O)n(C56CCC(N)(CC5)C6)ccc4c3)cc(C)c2n1 [Compound 655]	0.1 to 1	< 0.1
0.1 to 1	0.1 to 1	< 0.1	< 0.1	< 0.1	0.1 to 1	Cc1cn2cc(-c3cc(F)c4c(=O)n([C@H]5CC[C@@H](N(C)C)CC5)ccc4c3)cc(F)c2n1 [Compound 656]	0.1 to 1	< 0.1

SMILES	IC50 (HTT mRNA; [1]) [µM]	IC50 (HTT mRNA; [2]) [µM]	IC50 (MYB mRNA; [3]) [µM]	IC50 (MYB mRNA; [4]) [µM]	IC50 (SMN2 mRNA) [µM]	IC50 (Target C) [µM]	AC50 (HTT mRNA; RT-qPCR) [µM]	AC50 (MYB mRNA; RT-qPCR) [µM]
Cc1cc(-c2nc3ccc(N(C)C4CCNCC4)cc3c(=O)[nH]2)cc2cn(C)nc12 [Compound 121, 2-(2,7-dimethyl-2H-indazol-5-yl)-6-(methyl(piperidin-4-yl)amino)quinazolin-4(3H)-one]	> 10	1 to 10	> 10	1 to 10	0.1 to 1	> 10	> 10	> 10
Cc1cc(-c2nc3ccc(N(C)C4CCN(C)CC4)cc3c(=O)[nH]2)cc2cn(C)nc12 [Compound 239]	> 10	> 10	> 10	1 to 10	1 to 10	> 10	> 10	> 10
